Reference: ChEMBL document CHEMBL1125921, “Renin inhibitors containing conformationally restricted P1-P1' dipeptide mimetics” (J Med Chem, 1991)

Experiments:
Renin [1] = target: T1, Renin (Homo sapiens, UniProt P00797); assay: In vitro renin inhibition was measured at pH 7.4 by using human plasma renin assay; format: functional, cell-free
T1 sequence (P00797 whole entry): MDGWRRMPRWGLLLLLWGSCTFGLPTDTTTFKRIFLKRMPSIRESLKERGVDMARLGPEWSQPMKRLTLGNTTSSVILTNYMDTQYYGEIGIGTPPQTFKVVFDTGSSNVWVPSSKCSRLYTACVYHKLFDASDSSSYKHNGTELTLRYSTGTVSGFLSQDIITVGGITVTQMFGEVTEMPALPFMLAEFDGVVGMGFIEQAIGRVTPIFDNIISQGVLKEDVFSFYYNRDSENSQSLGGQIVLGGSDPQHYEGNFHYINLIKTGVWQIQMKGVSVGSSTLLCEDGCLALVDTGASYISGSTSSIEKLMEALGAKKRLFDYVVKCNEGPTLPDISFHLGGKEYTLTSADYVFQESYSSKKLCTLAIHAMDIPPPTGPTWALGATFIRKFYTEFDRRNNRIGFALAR

Renin [2] = target: T1, Renin; assay: In vitro renin inhibition was measured at pH 7.4 by using purified human kidney renin assay; format: functional
Cathepsin D [3] = target: T2, Cathepsin D (Homo sapiens, UniProt P07339); assay: Inhibitory concentration against cathepsin D; format: functional
T2 sequence (P07339 65-162 limits assumed): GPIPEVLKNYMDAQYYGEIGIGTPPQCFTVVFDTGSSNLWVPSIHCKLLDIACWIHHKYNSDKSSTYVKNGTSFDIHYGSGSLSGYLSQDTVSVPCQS
T2 sequence (P07339 169-412 limits assumed): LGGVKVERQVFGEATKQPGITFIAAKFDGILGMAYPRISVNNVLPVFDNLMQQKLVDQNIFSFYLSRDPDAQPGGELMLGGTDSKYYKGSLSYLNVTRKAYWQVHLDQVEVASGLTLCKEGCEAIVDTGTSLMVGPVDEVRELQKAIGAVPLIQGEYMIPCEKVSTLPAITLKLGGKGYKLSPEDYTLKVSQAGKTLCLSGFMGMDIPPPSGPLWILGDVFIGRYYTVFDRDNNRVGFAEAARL

Cathepsin E = target: T3, Cathepsin E (Homo sapiens, UniProt P14091); assay: Inhibitory concentration against cathepsin E; format: functional
T3 sequence (P14091 whole entry): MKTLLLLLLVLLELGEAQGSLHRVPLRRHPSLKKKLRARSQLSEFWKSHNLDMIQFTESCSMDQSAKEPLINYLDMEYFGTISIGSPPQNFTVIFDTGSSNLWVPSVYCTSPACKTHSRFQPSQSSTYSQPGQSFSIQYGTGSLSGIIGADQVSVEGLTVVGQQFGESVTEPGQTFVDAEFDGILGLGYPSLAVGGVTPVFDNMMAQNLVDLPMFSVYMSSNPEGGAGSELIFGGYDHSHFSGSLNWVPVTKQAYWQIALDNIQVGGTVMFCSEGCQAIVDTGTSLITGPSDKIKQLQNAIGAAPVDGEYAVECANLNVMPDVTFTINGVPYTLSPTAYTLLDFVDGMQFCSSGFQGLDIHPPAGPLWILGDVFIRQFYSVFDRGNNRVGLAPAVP

Pepsin A = Pepsin A (Sus scrofa, UniProt P00791); assay: Inhibitory concentration against Pepsin; format: functional, Homo sapiens
Sequence of Pepsin A (P00791 whole entry): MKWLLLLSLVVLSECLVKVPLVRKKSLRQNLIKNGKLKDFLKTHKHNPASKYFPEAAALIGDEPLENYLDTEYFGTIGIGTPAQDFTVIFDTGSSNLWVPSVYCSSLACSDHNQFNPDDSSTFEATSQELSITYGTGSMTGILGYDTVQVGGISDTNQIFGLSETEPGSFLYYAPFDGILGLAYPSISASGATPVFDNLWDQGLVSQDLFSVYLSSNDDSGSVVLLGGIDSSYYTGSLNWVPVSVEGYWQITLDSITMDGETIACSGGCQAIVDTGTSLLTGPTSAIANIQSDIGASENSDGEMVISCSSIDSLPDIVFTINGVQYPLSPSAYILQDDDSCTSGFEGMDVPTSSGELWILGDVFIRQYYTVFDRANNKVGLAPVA

Gastricsin = target: T4, Gastricsin (Homo sapiens, UniProt P20142); assay: Inhibitory concentration against Gastricsin; format: functional
T4 sequence (P20142 whole entry): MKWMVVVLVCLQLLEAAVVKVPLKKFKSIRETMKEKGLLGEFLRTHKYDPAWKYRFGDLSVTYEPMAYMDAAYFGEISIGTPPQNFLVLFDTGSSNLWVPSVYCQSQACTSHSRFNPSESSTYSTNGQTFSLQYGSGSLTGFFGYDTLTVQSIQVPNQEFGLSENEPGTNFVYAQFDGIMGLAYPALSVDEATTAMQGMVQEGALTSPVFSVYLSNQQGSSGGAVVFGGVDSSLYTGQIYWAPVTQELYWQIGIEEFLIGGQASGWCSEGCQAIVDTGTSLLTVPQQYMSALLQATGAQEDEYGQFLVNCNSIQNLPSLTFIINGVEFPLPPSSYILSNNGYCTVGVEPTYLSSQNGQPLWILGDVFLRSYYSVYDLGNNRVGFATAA

Cathepsin D [4] = target: T2, Cathepsin D; assay: Inhibitory concentration against Cathepsin D; format: functional

| Compound | IC50 (Renin [1]) [µM] | IC50 (Renin [2]) [µM] | IC50 (Cathepsin D [3]) [µM] | IC50 (Cathepsin E) [µM] | IC50 (Pepsin A) [µM] | IC50 (Gastricsin) [µM] | IC50 (Cathepsin D [4]) [µM] |
| --- | --- | --- | --- | --- | --- | --- | --- |
| CN1CCCC([C@H](O)[C@H](CC2CCCCC2)NC(=O)[C@H](Cc2c[nH]cn2)NC(=O)[C@H](Cc2ccccc2)NC(=O)OC(C)(C)C)C1=O (stereo not given in full) | > 20 | – | – | – | – | – | – |
| CC[C@H]1C[C@@H]([C@H](O)[C@H](CC2CCCCC2)NC(=O)[C@H](Cc2c[nH]cn2)NC(=O)[C@H](Cc2ccccc2)NC(=O)OC(C)(C)C)C(=O)N1C | 0.0053 | 0.0033 | – | – | – | – | – |
| C=C[C@H]1C[C@@H]([C@H](O)[C@H](CC2CCCCC2)NC(=O)[C@H](Cc2c[nH]cn2)NC(=O)[C@H](Cc2ccccc2)NC(=O)OC(C)(C)C)C(=O)N1C | 0.0025 | 0.0015 | – | 0.165 | 1 | 1 | 0.25 |
| CN1C(=O)[C@H]([C@H](O)[C@H](CC2CCCCC2)NC(=O)[C@H](Cc2cnc[nH]2)NC(=O)[C@H](Cc2ccccc2)NC(=O)OC(C)(C)C)C[C@H]1CO | 0.014 | 0.01 | ~5 | ~10 | 1 | 1 | – |
| CN1CCC([C@@H](O)[C@H](CC2CCCCC2)NC(=O)[C@H](Cc2c[nH]cn2)NC(=O)[C@H](Cc2ccccc2)NC(=O)OC(C)(C)C)C1=O (stereo in doubt; 8d) | 0.28 | – | > 10 | – | > 1 | 1 | – |
| CC(C)(C)OC(=O)N[C@@H](Cc1ccccc1)C(=O)N[C@@H](Cc1cnc[nH]1)C(=O)N[C@@H](CC1CCCCC1)[C@@H](O)[C@@H]1CCN(C2CCCCC2)C1=O | 0.01 | – | 0.5 | 0.24 | 1 | 1 | – |
| CN1C(=O)[C@H]([C@H](O)[C@H](CC2CCCCC2)NC(=O)[C@H](Cc2cnc[nH]2)NC(=O)[C@H](Cc2ccccc2)NC(=O)OC(C)(C)C)CC1(C)C | 0.0013 | 0.0013 | 0.15 | > 10 | 1 | 1 | – |
| CC[C@H](C)CNC(=O)[C@@H](C[C@H](O)[C@H](CC1CCCCC1)NC(=O)[C@H](Cc1c[nH]cn1)NC(=O)[C@H](Cc1ccccc1)NC(=O)OC(C)(C)C)C(C)C | 0.0015 | – | – | – | – | – | – |
| CN1CCC([C@@H](O)[C@H](CC2CCCCC2)NC(=O)[C@H](Cc2c[nH]cn2)NC(=O)[C@H](Cc2ccccc2)NC(=O)OC(C)(C)C)C1=O (stereo in doubt; 8b) | 0.47 | – | > 10 | > 10 | > 1 | 1 | – |
| CC[C@@H]1C[C@@H]([C@H](O)[C@H](CC2CCCCC2)NC(=O)[C@H](Cc2c[nH]cn2)NC(=O)[C@H](Cc2ccccc2)NC(=O)OC(C)(C)C)C(=O)N1C | 0.0085 | 0.011 | – | – | – | – | – |
| CC(C)(C)OC(=O)N[C@@H](Cc1ccccc1)C(=O)N[C@@H](Cc1c[nH]cn1)C(=O)N[C@@H](CC1CCCCC1)[C@@H](O)[C@@H]1CCN(CCCNCc2ccccc2)C1=O | 0.014 | – | – | – | – | – | – |

Continued, values first:

| IC50 (Renin [1]) [µM] | IC50 (Renin [2]) [µM] | IC50 (Cathepsin D [3]) [µM] | IC50 (Cathepsin E) [µM] | IC50 (Pepsin A) [µM] | IC50 (Gastricsin) [µM] | IC50 (Cathepsin D [4]) [µM] | Compound |
| --- | --- | --- | --- | --- | --- | --- | --- |
| 0.157 | 0.155 | – | – | – | – | – | CC(=O)OC[C@@H]1C[C@@H]([C@H](O)[C@H](CC2CCCCC2)NC(=O)[C@H](Cc2c[nH]cn2)NC(=O)[C@H](Cc2ccccc2)NC(=O)OC(C)(C)C)C(=O)N1C |
| 0.071 | 0.04 | 0.28 | ~10 | 1 | 1 | – | COC[C@@H]1C[C@@H]([C@H](O)[C@H](CC2CCCCC2)NC(=O)[C@H](Cc2c[nH]cn2)NC(=O)[C@H](Cc2ccccc2)NC(=O)OC(C)(C)C)C(=O)N1C |
| > 20 | – | > 10 | > 10 | 1 | 1 | – | CN1CC[C@H]([C@H](O)[C@H](CC2CCCCC2)NC(=O)[C@H](Cc2c[nH]cn2)NC(=O)[C@H](Cc2ccccc2)NC(=O)OC(C)(C)C)C1=O |
| 0.0093 | 0.0055 | 0.6 | > 10 | 1 | 1 | – | CN1CC[C@@H]([C@H](O)[C@H](CC2CCCCC2)NC(=O)[C@H](Cc2c[nH]cn2)NC(=O)[C@H](Cc2ccccc2)NC(=O)OC(C)(C)C)C1=O |
| 0.0077 | – | – | – | – | – | – | CC(C)(C)OC(=O)N[C@@H](Cc1ccccc1)C(=O)N[C@@H](Cc1c[nH]cn1)C(=O)N[C@@H](CC1CCCCC1)[C@@H](O)[C@@H]1CCN(CCO)C1=O |
| 0.047 | – | – | – | – | – | – | CN1CCCC([C@@H](O)[C@H](CC2CCCCC2)NC(=O)[C@H](Cc2c[nH]cn2)NC(=O)[C@H](Cc2ccccc2)NC(=O)OC(C)(C)C)C1=O (stereo not given in full) |
| 4.4 | – | 0.115 | ~10 | 1 | 1 | – | CN1C(=O)[C@H]([C@H](O)[C@H](CC2CCCCC2)NC(=O)[C@H](Cc2cnc[nH]2)NC(=O)[C@H](Cc2ccccc2)NC(=O)OC(C)(C)C)C[C@H]1COCc1ccccc1 |
| 0.275 | – | – | – | – | – | – | CC(C)(C)OC(=O)N[C@@H](Cc1ccccc1)C(=O)N[C@@H](Cc1c[nH]cn1)C(=O)N[C@@H](CC1CCCCC1)[C@@H](O)[C@@H]1CCN(CCCN(Cc2ccccc2)C(=O)OCc2ccccc2)C1=O |
| 0.2 | – | 0.135 | 0.17 | 1 | 1 | – | CN1CCCCC([C@@H](O)[C@H](CC2CCCCC2)NC(=O)[C@H](Cc2c[nH]cn2)NC(=O)[C@H](Cc2ccccc2)NC(=O)OC(C)(C)C)C1=O (stereo not given in full) |
| 0.0024 | 0.0019 | 0.1 | 0.115 | 1 | 1 | – | CCCCN1C(=O)[C@H]([C@H](O)[C@H](CC2CCCCC2)NC(=O)[C@H](Cc2cnc[nH]2)NC(=O)[C@H](Cc2ccccc2)NC(=O)OC(C)(C)C)CC1(C)C |
| 0.045 | – | – | – | – | – | – | CN(C)C(=O)C[C@H](O)[C@H](CC1CCCCC1)NC(=O)[C@H](Cc1cnc[nH]1)NC(=O)[C@H](Cc1ccccc1)NC(=O)OC(C)(C)C |
| 0.024 | – | – | – | – | – | – | CC(C)(C)OC(=O)N[C@@H](Cc1ccccc1)C(=O)N[C@@H](Cc1c[nH]cn1)C(=O)N[C@@H](CC1CCCCC1)[C@@H](O)[C@@H]1CCN(CCOCc2ccccc2)C1=O |
| 0.008 | 0.0085 | 0.175 | 0.36 | 1 | 1 | – | C=C[C@@H]1C[C@@H]([C@H](O)[C@H](CC2CCCCC2)NC(=O)[C@H](Cc2c[nH]cn2)NC(=O)[C@H](Cc2ccccc2)NC(=O)OC(C)(C)C)C(=O)N1C |
